Experimental data reported in ChEMBL document CHEMBL5385888, “Structure-based discovery of pyrazolamides as novel ERRγ inverse agonists” (Eur J Med Chem, 2023).
The source made the active and inactive calls. The rule behind the calls is not given here.

Columns and labels:
[1] = molecular target: T1, Estrogen-related receptor gamma (Mus musculus) (UniProt P62509); test: Inverse agonist activity at Gal4-tagged mouse ERR-gamma LBD transfected in HEK293T cells co-expressing FR-luc assessed as inhibition of transcriptional activity at 10 uM incubated for 24 hrs by luciferase reporter gene assay; format: cell-based
T1 sequence (whole entry): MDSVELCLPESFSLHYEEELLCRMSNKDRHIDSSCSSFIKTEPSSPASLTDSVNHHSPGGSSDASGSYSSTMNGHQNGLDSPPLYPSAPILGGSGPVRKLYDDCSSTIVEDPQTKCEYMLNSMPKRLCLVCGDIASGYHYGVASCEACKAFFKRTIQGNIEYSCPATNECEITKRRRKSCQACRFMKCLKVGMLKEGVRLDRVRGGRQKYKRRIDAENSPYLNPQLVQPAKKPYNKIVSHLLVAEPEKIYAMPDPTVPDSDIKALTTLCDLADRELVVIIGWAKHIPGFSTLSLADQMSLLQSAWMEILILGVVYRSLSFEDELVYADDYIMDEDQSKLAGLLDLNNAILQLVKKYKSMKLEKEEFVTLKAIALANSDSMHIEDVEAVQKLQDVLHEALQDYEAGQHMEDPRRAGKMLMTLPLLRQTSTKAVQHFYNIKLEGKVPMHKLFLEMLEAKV

[2] = molecular target: T2, Estrogen-related receptor gamma (Mus musculus, UniProt P62509); test: Inverse agonist activity at Gal4-tagged mouse ERR-gamma LBD transfected in HEK293T cells co-expressing FR-luc assessed as inhibition of transcriptional activity incubated for 24 hrs by luciferase reporter gene assay; format: cell-based
T2 sequence (P62509 whole entry): T1 sequence (whole entry)

inhibition [1] | IC50 [2] [µM] | Compound | further results
inactive | – | COc1cccc(-c2nn(-c3ccccc3)cc2C(=O)Nc2cc(OCCN(C)C)cc(C(F)(F)F)c2)c1 | –
– | 6.75 | O=C(Nc1cc(Oc2cccnc2)cc(C(F)(F)F)c1)c1cn(-c2ccccc2)nc1-c1ccccc1 | –
inactive | – | COc1cccc(-c2nn(-c3ccccc3)cc2C(=O)Nc2cc(OCCCN(C)C)cc(C(F)(F)F)c2)c1 | –
inactive | – | COc1cccc(-c2nn(-c3ccccc3)cc2C(=O)Nc2cc(N)cc(OCCN(C)C)c2)c1 | –
inactive | – | CN(C)CCCOc1cc(NC(=O)c2cn(-c3ccccc3)nc2-c2ccccc2)cc(C(F)(F)F)c1 | –
inactive | – | COc1cccc(-c2nn(-c3ccccc3)cc2C(=O)Nc2cc(N)cc(OCCCN(C)C)c2)c1 | –
inactive | – | CN(C)CCCOc1cc(N)cc(NC(=O)c2cn(-c3ccccc3)nc2-c2ccccc2)c1 | –
inactive | – | CN(C)CCOc1cc(NC(=O)c2cn(-c3ccccc3)nc2-c2ccccc2)cc(C(F)(F)F)c1 | –

The remaining lines, values behind:

Compound | inhibition [1] | IC50 [2] [µM] | further results
COc1cccc(Oc2cc(N)cc(NC(=O)c3cn(-c4ccccc4)nc3-c3cccc(OC)c3)c2)c1 | – | 8.47 | –
Nc1cc(NC(=O)c2cn(-c3ccc(C(=O)O)cc3)nc2-c2ccccc2)cc(Oc2cccnc2)c1 | inactive | – | –
COc1ccc(-c2nn(-c3ccccc3)cc2C(=O)Nc2ccc(Oc3ccc(C)cc3OC)cc2)cc1OC | – | 10.4 | –
COC(=O)c1ccc(-n2cc(C(=O)Nc3cc(N)cc(Oc4cccnc4)c3)c(-c3ccccc3)n2)cc1 | inactive | – | –
Cc1ccc(-c2nn(-c3ccccc3)cc2C(=O)Nc2ccc(Oc3ccc(C(C)C)cc3)cc2)cc1 | – | – | Activity ([1]; filed as inverse agonist): Active
COc1cccc(Oc2cc(N)cc(NC(=O)c3cn(-c4ccccc4)nc3-c3ccccc3)c2)c1 | – | 13.5 | –
COc1cc(C)ccc1Oc1ccc(NC(=O)c2cn(-c3ccccc3)nc2-c2ccc(C)cc2)cc1 | – | 5.48 | –
Nc1cc(NC(=O)c2cn(-c3ccc(CO)cc3)nc2-c2ccccc2)cc(Oc2cccnc2)c1 | inactive | – | –
COC(=O)c1cccc(Oc2cc(N)cc(NC(=O)c3cn(-c4ccccc4)nc3-c3ccccc3)c2)c1 | – | 8.42 | –
COc1cccc(-c2nn(-c3ccccc3)cc2C(=O)Nc2cc(N)cc(Oc3cccnc3)c2)c1 | – | 2.91 | –
CCN(CC)C(=O)c1ccc(-n2cc(C(=O)Nc3cc(N)cc(Oc4cccnc4)c3)c(-c3ccccc3)n2)cc1 | inactive | – | –
O=C(Nc1cccc(Oc2cccnc2)c1)c1cn(-c2ccccc2)nc1-c1ccccc1 | – | 1.33 | –
COc1cccc(-c2nn(-c3ccccc3)cc2C(=O)Nc2cccc(Oc3cccnc3)c2)c1 | – | 2.11 | –
COc1ccc(-c2nn(-c3ccccc3)cc2C(=O)Nc2ccc(Oc3ccc(C(C)C)cc3)cc2)cc1OC | – | 9.95 | –
COc1cc(C)ccc1Oc1ccc(NC(=O)c2cn(-c3ccccc3)nc2-c2ccccc2)cc1 | – | 9.48 | –
